Laboratory results: patent US7189736B2, “Prodrugs of imidazopyridine derivatives” (Altana Pharma AG, priority 2000, dated 2007)

How the values were obtained:
[1] = system: acid secretion of the perfused rat stomach stimulated by pentagastrin; experiment: Secretion-inhibiting action on perfused rat stomach (pentagastrin-stimulated acid secretion); format: in vivo; conditions: anesthetized CD rats, female, dose 3 μmol/kg i.v.; for inhibition at 3 µmol/kg: Rattus norvegicus, iv
Source text: Testing of the Secretion-inhibiting Action on Perfused Rat Stomach
In table A below, the influence of the compounds according to the invention after intravenous administration is shown on the acid secretion of the perfused rat stomach stimulated by pentagastrin.
The abdomen of anesthetized rats (CD rats, female, 200–250 g; 1.5 g/kg of i.m. urethane) was opened after tracheotomy by a median upper abdominal incision and a PVC catheter was fixed transorally in the esophagus and a further one via the pylorus such that the ends of the tubing just still projected into the gastric lumen. The catheter leading from the pylorus led outwards via a side opening in the right abdominal wall.
After thorough rinsing (about 50–100 ml), a continuous flow of warm physiological NaCl solution (0.5 ml/min, pH 6.8–6.9; Braun-Unita I) was continuously passed through the stomach at 37° C. The pH in the effluent, in each case collected at an interval of 15 minutes, was determined (pH meter 632, glass electrode EA 147; φ 5 mm, Metrohm) and the secreted HCl was determined by titration with a freshly prepared 0.01N NaOH solution to pH 7 (Dosimat 665 Metrohm).
Gastric secretion was stimulated by continuous infusion of 1 μg/kg (=1.65 ml/h) of i.v. pentagastrin (left femoral vein) about 30 min after the end of the operation (i.e. after determination of 2 preliminary fractions). The substances to be tested were administered intravenously in 1 ml/kg of fluid volume 60 min after the start of the pentagastrin continuous infusion.
The body temperature of the animals was kept at a constant 37.8–38° C. by means of infrared irradiation and heating pads (automatic, step-free control via a rectal temperature sensor).

melting point [°C]	SMILES	other results
178 to 179	COC(=O)O[C@@H]1[C@@H](c2ccccc2)Nc2c(ccn3c(C)c(C)nc23)[C@H]1OC [Example 43, (7R,8R,9R)7-Methoxy-8-methoxycarbonyloxy-2,3-dimethyl-9-phenyl 7,8,9,10-tetrahydroimidazo[1,2-h][1,7]naphthyridine]	
	COCCO[C@H]1c2ccn3c(C)c(C)nc3c2N[C@H](c2ccccc2)[C@H]1OC(C)=O [Example 1, (7S,8R,9R)-8-Acetoxy-7-(2-methoxyethoxy)-2,3-dimethyl-9-phenyl-7,8,9,10-tetra-hydroimidazo[1,2-h][1,7]naphthyridine]	inhibition at 3 µmol/kg [1]: 100%
90 to 91	COC(=O)O[C@@H]1[C@@H](c2ccccc2)Nc2c(ccn3c(C)c(C)nc23)[C@@H]1OC [Example 44, (7S,8R,9R)7-Methoxy-8-methoxycarbonyloxy-2,3-dimethyl-9-phenyl 7,8,9,10-tetrahydroimidazo[1,2-h][1,7]naphthyridine]	
	COCCO[C@@H]1c2ccn3c(C)c(C)nc3c2N[C@H](c2ccccc2)[C@H]1OC(C)=O [Example 2, (7R,8R,9R)-8-Acetoxy-7-(2-methoxyethoxy)-2,3-dimethyl-9-phenyl-7,8,9,1,0-tetra-hydroimidazo[1,2-h][1,7]naphthyridine]	Inhibition of acid secretion (%) [1]: 100%
63 to 65	COCCO[C@H]1c2ccn3c(C)c(C)nc3c2N[C@H](c2ccccc2)[C@H]1OC(=O)OC1CC(C)CCC1C(C)C (stereo partly drawn) [Example 27, (7S,8R,9R)-8-[(+)-Menthyloxycarbonyloxy]-7-(2-methoxyethoxy)-2,3-dimethyl-9-phenyl-7,8,9,10-tetrahydroimidazo[1,2-h][1,7]naphthyridine]	
97 to 98	CCN(CC)C(=O)O[C@@H]1[C@@H](c2ccccc2)Nc2c(ccn3c(C)c(C)nc23)[C@@H]1OC [Example 42, (7S,8R,9R)8-(N,N-Diethylaminocarbonyloxy)-2,3-dimethyl-7-methoxy-9-phenyl 7,8,9,10-tetrahydroimidazo[1,2-h][1,7]naphthyridine]	
80 to 84	CO[C@@H]1c2ccn3c(C)c(C)nc3c2N[C@H](c2ccccc2)[C@H]1OC(=O)c1cccc([N+](=O)[O-])c1 [Example 17, (7R,8R,9R)-7-Methoxy-2,3-dimethyl-8-(3-nitrobenzoyloxy)-9-phenyl-7,8,9,10-tetra-hydroimidazo[1,2-h][1,7]naphthyridine]	
78 to 80	COCCO[C@H]1c2ccn3c(C)c(C)nc3c2N[C@H](c2ccccc2)[C@H]1OC(=O)c1ccccc1 [Example 7, (7S,8R,9R)-8-Benzoyloxy-7-(2-methoxyethoxy)-2,3-dimethyl-9-phenyl-7,8,9,10tetrahydroimidazo[1,2-h][1,7]naphthyridine]	
127 to 129	COCCO[C@@H]1c2ccn3c(C)c(C)nc3c2N[C@H](c2ccccc2)[C@H]1OC(=O)OC1CC(C)CCC1C(C)C (stereo partly drawn) [Example 26, (7R,8R,9R)-8-[(+)-Menthyloxycarbonyloxy]-7-(2-methoxyethoxy)-2,3-dimethyl-9-phenyl-7,8,9,10-tetrahydroimidazo[1,2-h][1,7]naphthyridine]	
78 to 80	CO[C@H]1c2ccn3c(C)c(C)nc3c2N[C@H](c2ccccc2)[C@H]1OC(=O)c1ccccc1 [Example 11, (7S,8R,9R)-8-Benzoyloxy-7-methoxy-2,3-dimethyl-9-phenyl-7,8,9,10-tetrahydro-imidazo[1,2-h][1,7]naphthyridine]	
82 to 83	COCCO[C@H]1c2ccn3c(C)c(C)nc3c2N[C@H](c2ccccc2)[C@H]1OC(=O)c1ccc(OC)cc1 [Example 18, (7S,8R,9R)-7-(2-Methoxyethoxy)-2,3-dimethyl-8-(4-methoxybenzoyloxy)-9-phenyl-7,8,9,10-tetrahydroimidazo[1,2-h][1,7]naphthyridine]	
133 to 134	COCCO[C@@H]1c2ccn3c(C)c(C)nc3c2N[C@H](c2ccccc2)[C@H]1OC(=O)c1ccc([N+](=O)[O-])cc1 [Example 12, (7R,8R,9R)-7-(2-Methoxyethoxy)-2,3-dimethyl-8-(4-nitrobenzoyloxy)-9-phenyl-7,8,9,10-tetrahydroimidazo[1,2-h][1,7]naphthyridine]	
152 to 153	CO[C@@H]1c2ccn3c(C)c(C)nc3c2N[C@H](c2ccccc2)[C@H]1OC=O [Example 45, (7R,8R,9R)-2,3-Dimethyl-8-formyloxy-7-methoxy-9-phenyl-7,8,9,10-tetrahydro-imidazo[1,2-h][1,7]naphthyridine]	
114 to 115	COCCO[C@@H]1c2ccn3c(C)c(C)nc3c2N[C@H](c2ccccc2)[C@H]1OC(=O)CN(C)C [Example 20, (7R,8R,9R)-7-(2-Methoxyethoxy)-2,3-dimethyl-8-(N,N-dimethylaminomethyl-carbonyloxy)-9-phenyl-7,8,9,10-tetrahydroimidazo[1,2-h][1,7]naphthyridine]	
206 to 207	COCCO[C@H]1c2ccn3c(C)c(C)nc3c2N[C@H](c2ccccc2)[C@H]1OC(=O)CN(C)C [Example 21, (7S,8R,9R)-7-(2-Methoxyethoxy)-2,3-dimethyl-8-(N,N-dimethylaminomethyl-carbonyloxy)-9-phenyl-7,8,9,10-tetrahydroimidazo[1,2-h][1,7]naphthyridine]	
92 to 93	CO[C@@H]1c2ccn3c(C)c(C)nc3c2N[C@H](c2ccccc2)[C@H]1OC(=O)c1ccccc1 [Example 47, (7R,8R,9R)-8-Benzoyloxy-2,3-dimethyl-7-methoxy-9-phenyl-7,8,9,10-tetrahydro-imidazo[1,2-h][1,7]naphthyridine]	
73 to 75	COCC(=O)O[C@@H]1[C@@H](c2ccccc2)Nc2c(ccn3c(C)c(C)nc23)[C@@H]1OC [Example 40, (7S,8R,9R)-2,3-Dimethyl-7-methoxy-8-methoxyacetyloxy-9-phenyl-7,8,9,10-tetrahydroimidazo[1,2-h][1,7]naphthyridine]	
50 to 52	CCN(CC)C(=O)O[C@@H]1[C@@H](c2ccccc2)Nc2c(ccn3c(C)c(C)nc23)[C@@H]1OCCOC [Example 22, (7S,8R,9R)-7-(2-Methoxyethoxy)-8-(N,N-diethylaminocarbonyloxy)-2,3-dimethyl-9-phenyl-7,8,9,10-tetrahydroimidazo[1,2-h][1,7]naphthyridine]	
106 to 107	CCC(=O)O[C@@H]1[C@@H](c2ccccc2)Nc2c(ccn3c(C)c(C)nc23)[C@H]1OCCOC [Example 5, (7R,8R,9R)-7-(2-Methoxyethoxy)-2,3-dimethyl-9-phenyl-8-propionyloxy-7,8,9,10-tetrahydroimidazo[1,2-h][1,7]naphthyridine]	
123 to 124	CCN(CC)C(=O)O[C@@H]1[C@@H](c2ccccc2)Nc2c(ccn3c(C)c(C)nc23)[C@H]1OC [Example 41, (7R,8R,9R)8-(N,N-Diethylaminocarbonyloxy)-2,3-dimethyl-7-methoxy-9-phenyl 7,8,9,10-tetrahydroimidazo[1,2-h][1,7]naphthyridine]	
176 to 177	COCCO[C@@H]1c2ccn3c(C)c(C)nc3c2N[C@H](c2ccccc2)[C@H]1OC(=O)OC [Example 8, (7R,8R,9R)-8-Methoxycarbonyloxy-7-(2-methoxyethoxy)-2,3-dimethyl-9-phenyl-7,8,9,10-tetrahydroimidazo[1,2-h][1,7]naphthyridine]	
82 to 84	CO[C@@H]1c2ccn3c(C)c(C)nc3c2N[C@H](c2ccccc2)[C@H]1OC(=O)c1ccccc1 [Example 10, (7R,8R,9R)-8-Benzoyloxy-7-methoxy-2,3-dimethyl-9-phenyl-7,8,9,10-tetrahydro-imidazo[1,2-h][1,7]naphthyridine]	
150 to 151	COCCO[C@@H]1c2ccn3c(C)c(C)nc3c2N[C@H](c2ccccc2)[C@H]1OC(=O)c1ccc(OC)cc1 [Example 19, (7R,8R,9R)-7-(2-Methoxyethoxy)-2,3-dimethyl-8-(4-methoxybenzoyloxy)-9-phenyl-7,8,9,10-tetrahydroimidazo[1,2-h][1,7]naphthyridine]	

SMILES	melting point [°C]	other results
CCO[C@@H]1c2ccn3c(C)c(C)nc3c2N[C@H](c2ccccc2)[C@H]1OC(C)=O [Example 4, (7R,8R,9R)8-Acetoxy-7-ethoxy-2,3-dimethyl-9-phenyl-7,8,9,10-tetrahydroimidazo-[1,2-h][1,7]naphthyridine]	182 to 184	
CO[C@@H]1c2ccn3c(C)c(C)nc3c2N[C@H](c2ccccc2)[C@H]1OC(C)=O [Example 3, (7R,8R,9R)-8-Acetoxy-7-methoxy-2,3-dimethyl-9-phenyl-7,8,9,10-tetrahydro-imidazo[1,2-h][1,7]naphthyridine]	197 to 199	inhibition at 3 µmol/kg [1]: 100%
